The results in this text go back to US20070060480A1, “Heteroaroyl-substituted phenylalanineamides” (priority 2003, published 2007).

Data set [1] deals with Amaranthus retroflexus. As to the kind of experiment: greenhouse post-emergence herbicidal test. The data set is classed as in vivo. The settings on record: for post-emergence activity against pig weed: application rate 1.0 kg/ha. Here is the method:
(§1) The seeds of the test plants were sown separately for each species. For the post-emergence treatment, the test plants were grown to a plant height of from 3 to 15 cm, depending on the plant habit, and only then treated with the active ingredients which had been suspended or emulsified in water. To this end, the test plants were either sown directly and grown in the same containers, or they were first grown separately as seedlings and transplanted into the test containers a few days prior to treatment. […] (active substance). Depending on the species, the plants were kept at from 10 to 25° C. and 20 to 35° C., respectively. The test period extended over 2 to 4 weeks. During this time, the plants were tended, and their response to the individual treatments was evaluated. Evaluation was carried out using a scale of from 0 to 100. 100 means no emergence of the plants, or complete destruction of at least the aerial parts, and 0 means no damage or normal course of growth. The plants used in the greenhouse experiments belonged to the following species: [table]

The test system of data set [2] is Chenopodium album. As to the kind of experiment: greenhouse post-emergence herbicidal test. Particulars: for post-emergence activity against lambsquarters: application rate 1.0 kg/ha. The class given is in vivo. The protocol:
as §1

Data set [3] concerns Setaria viridis. Put plainly: greenhouse post-emergence herbicidal test. The class given is in vivo. Particulars: for post-emergence activity against green foxtail: application rate 1.0 kg/ha. Here is the method:
as §1

For data set [4], the system named is Galium aparine. As to the kind of experiment: greenhouse post-emergence herbicidal test. The data set is classed as in vivo. The settings on record: application rate 1.0 kg/ha. Here is the method: as §1
For data set [5], the system named is Polygonum convolvulus. Put plainly: greenhouse post-emergence herbicidal test. The settings on record: application rate 1.0 kg/ha. The data set is classed as in vivo. The protocol:
as §1

Data set [6] deals with Echinocloa crus-galli. As to the kind of experiment: greenhouse post-emergence herbicidal test. The data set is classed as in vivo. Particulars: application rate 1.0 kg/ha. The protocol:
as §1

Consider `CNC(=O)C(NC(=O)c1cn(C)nc1C(F)(F)F)C(C)c1ccccc1C` (mixture of isomers) [Compound 4.6], for which the “post-emergence activity against pig weed” value in data set [1] is on record as “very good”. The “post-emergence activity against lambsquarters” value in data set [2] is on record as “very good”. In addition, in data set [3], the “post-emergence activity against green foxtail” value was “very good”.
Turning to `CNC(=O)C(NC(=O)c1cn(C)nc1C(F)(F)F)C(O)c1ccccc1` (racemic) [Compound 4.9, N-(2-Hydroxy-1-methylcarbamoyl-2-phenylethyl)-1-methyl-3-trifluoromethyl-1H-pyrazole-4-carboxamide], the melting point was determined as 216 °C.
Turning to `CCC(CC)C(=O)OC(c1ccccc1)C(NC(=O)c1cn(C)nc1C(F)(F)F)C(=O)NC` (racemic) [Compound 4.14], in data set [1], the “post-emergence activity against pig weed” value was “very good”. In addition, the “post-emergence activity against lambsquarters” value in data set [2] is given as “very good”. Also, the “post-emergence activity against green foxtail” value in data set [3] is recorded as “very good”.
As to `CNC(=O)C(NC(=O)c1cn(C)nc1C(F)(F)F)C(OC(=O)C(C)(C)C)c1ccccc1` (racemic) [Compound 4.15, 2-Methylcarbamoyl-2-[(1-methyl-3-trifluoromethyl-1H-pyrazole-4-carbonyl)amino]-1-phenylethyl 2,2-dimethylpropionate], the melting point worked out at 158 °C.
Take `CNC(=O)C(NC(=O)c1cn(C)nc1C(F)(F)F)C(OS(C)(=O)=O)c1ccccc1` (racemic) [Compound 4.22]: the “post-emergence action on pig weed” value in data set [1] (application rate 0.5 kg/ha) was “very good”. Further, in data set [2] (application rate 0.5 kg/ha), the “post-emergence action on lambsquarters” value is “very good”. For the same molecule, in data set [3] (application rate 0.5 kg/ha), the “post-emergence action on green foxtail” value is given as “very good”.
Take `CNC(=O)C(NC(=O)c1ccsc1C(F)(F)F)C(OC(=O)COC)c1ccccc1` (racemic) [Compound 5.6]: the “post-emergence activity against pig weed” value in data set [1] is on record as “very good”. The “post-emergence activity against lambsquarters” value in data set [2] is “very good”. For the same molecule, the “post-emergence activity against green foxtail” value in data set [3] is recorded as “very good”.
Turning to `CNC(=O)C(NC(=O)c1cscc1C(F)(F)F)C(OC(=O)N(C)C)c1ccccc1` (racemic) [Compound 5.8], in data set [2], the “post-emergence activity against lambsquarters” value is “very good”. Besides, in data set [3], the “post-emergence activity against green foxtail” value is reported as “very good”. Moreover, the “post-emergence activity against cleavers harrif” value in data set [4] was “very good”. Moreover, the “post-emergence activity against black bindweed” value in data set [5] is given as “very good”. The “post-emergence activity against cockspur” value in data set [6] was “very good”.
On to `CNC(=O)C(NC(=O)c1cc(C)oc1C(F)(F)F)C(O)c1ccccc1` (racemic) [Compound 5.14], for which the “post-emergence activity against lambsquarters” value in data set [2] is given as “very good”. Also, in data set [3], the “post-emergence activity against green foxtail” value was “very good”. The “post-emergence activity against cleavers harrif” value in data set [4] was “very good”. In addition, the “post-emergence activity against cockspur” value in data set [6] is on record as “very good”.
On to `CNC(=O)C(NC(=O)c1cc(C)oc1C(F)(F)F)C(OC(=O)N(C)C)c1ccccc1` (racemic) [Compound 5.16], for which the “post-emergence activity against lambsquarters” value in data set [2] is recorded as “very good”. The “post-emergence activity against green foxtail” value in data set [3] is on record as “very good”. Besides, in data set [5], the “post-emergence activity against black bindweed” value is given as “very good”. In addition, the “post-emergence activity against cockspur” value in data set [6] is recorded as “very good”.
On to `CNC(=O)C(NC(=O)c1ccncc1C(F)(F)F)C(O)c1ccccc1` (racemic) [Compound 5.23], for which the “post-emergence activity against pig weed” value in data set [1] is listed as “very good”. Besides, the “post-emergence activity against lambsquarters” value in data set [2] was “very good”. The “post-emergence activity against green foxtail” value in data set [3] is recorded as “very good”. In addition, in data set [4], the “post-emergence activity against cleavers harrif” value is given as “very good”.
